Read-outs that look alike come from different tables or passages of the source.
Experiments:
Assay in all cases: MTT cancer cell growth inhibition
Type in all cases: cell-based
[1] = test system: SGC-7901 (human gastric cancer cells); conditions: Homo sapiens, SGC-7901, 72 h, MTT, 72 hours incubation, SGC-7901 cells; read-out: GI50 SGC-7901
In short: (§1)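 Read-out was formazan absorbance at 570 nm after a 4 h MTT step and DMSO solubilisation, converted to cell viability and fitted for GI50. Beforehand, cells (1500/well, overnight attachment) were treated with compound at 10^−5 to 10^−10 M for 72 h at 37° C.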

[2] = test system: HCC827 (human non-small cell lung cancer cells); conditions: Homo sapiens, HCC827, 72 h, MTT, 72 hours incubation, HCC827 cells; read-out: GI50 HCC827
In short: as §1

[3] = test system: BGC-823 (human gastric cancer cells); conditions: Homo sapiens, BGC-823, 72 h, MTT, 72 hours incubation, read-out: GI50 BG
In short: as §1

[4] = test system: H1975 (non-small cell lung adenocarcinoma); conditions: Homo sapiens, NCI-H1975, 72 h, MTT, 72 hours incubation, H1975 cells; read-out: GI50 H1975
In short: as §1

[5] = test system: Hela (human cervical cancer cells); conditions: Homo sapiens, HeLa, 72 h, MTT, 72 hours incubation, read-out: GI50 Hela
In short: as §1

[6] = test system: A549 (human lung cancer cells); conditions: Homo sapiens, A549, 72 h, MTT, 72 hours incubation, read-out: GI50 A54
In short: as §1

[7] = test system: Bel-7402 (human hepatoma cells); conditions: Homo sapiens, Bel-7402, 72 h, MTT, 72 hours incubation, Bel-7402 cells; read-out: GI50 Bel-7402
In short: as §1

[8] = test system: HT1080 (human fibrosarcoma cells); conditions: Homo sapiens, HT-1080, 72 h, MTT, 72 hours incubation, read-out: GI50 HT1
In short: as §1

[9] = test system: DU145 (human prostate cancer cells); conditions: Homo sapiens, DU-145, 72 h, MTT, 72 hours incubation, read-out: GI50 Du1
In short: as §1

[10] = test system: KBM5-T315I (human chronic myelogenous leukemia); conditions: Homo sapiens, 72 h, MTT, 72 hours incubation, KBM5-T315I cells; read-out: GI50 KBM5-T315I
In short: as §1

[11] = test system: U937 (human leukemia cells); conditions: Homo sapiens, U-937, 72 h, MTT, 72 hours incubation, read-out: GI50 U93
In short: as §1

[12] = test system: PANC-1 (Pac-1, human pancreatic cancer cells); conditions: Homo sapiens, PANC-1, 72 h, MTT, 72 hours incubation, read-out: GI50 PAN
In short: as §1

[13] = test system: KBM-5 (human chronic myelogenous leukemia); conditions: Homo sapiens, KBM5, 72 h, MTT, 72 hours incubation, KBM-5 cells; read-out: GI50 KBM-5
In short: as §1

[14] = test system: MDA-MB-231 (breast cancer cells); conditions: Homo sapiens, MDA-MB-231, 72 h, read-out: GI50 MDA-MB-231, MTT, 72 hours incubation, MDA-MB-231 cells
In short: as §1

[15] = test system: Huh-7 (human hepatoma cells); conditions: Homo sapiens, Huh-7, 72 h, MTT, 72 hours incubation, Huh-7 cells; read-out: GI50 Huh-7
In short: as §1

GI50 [1] [µM] | GI50 [2] [µM] | GI50 [3] [µM] | GI50 [4] [µM] | GI50 [5] [µM] | GI50 [6] [µM] | GI50 [7] [µM] | GI50 [8] [µM] | GI50 [9] [µM] | GI50 [10] [µM] | GI50 [11] [µM] | GI50 [12] [µM] | GI50 [13] [µM] | GI50 [14] [µM] | GI50 [15] [µM] | SMILES | further results
0.037 | 0.084 | 0.05 | 0.034 | 0.04 | 0.03 | 0.084 | 0.08 | 0.03 | 0.026 | 0.03 | 0.08 | 0.046 | 0.033 | 0.033 | C/C=C1\NC(=O)c2cc(C)cc(n2)CNC(=O)C[C@@H](/C=C/CCSC(C)=O)OC(=O)[C@H](Cc2ccccc2)NC1=O [Example 67] | 
0.026 | 0.042 | 0.06 | 0.034 | 0.03 | 0.04 | 0.083 | 0.05 |  | 0.029 |  | 0.03 | 0.051 | 0.092 | 0.073 | C/C=C1\NC(=O)c2cccc(n2)CNC(=O)C[C@@H](/C=C/CCSC(=O)CCCCCC)OC(=O)[C@H](C(C)C)NC1=O [Compound 2] | 
0.043 | 0.073 | 0.01 | 0.055 | 0.05 | 0.04 | 0.073 | 0.07 | 0.03 | 0.026 | 0.05 | 0.07 | 0.051 | 0.028 | 0.028 | C=C1NC(=O)c2nc(ccc2F)CNC(=O)C[C@@H](/C=C/CCSC(C)=O)OC(=O)[C@H](C(C)C)NC1=O [Compound 84] | 
0.029 | 0.067 | 0.03 | 0.053 | 0.07 | 0.02 | 0.067 | 0.06 | 0.03 | 0.024 | 0.05 | 0.06 | 0.071 | 0.038 | 0.038 | CC(=O)SCC/C=C/[C@@H]1CC(=O)NCc2cc(F)cc(n2)C(=O)NC(=C(C)C)C(=O)N[C@@H](C(C)C)C(=O)O1 [Compound 88] | 
0.028 | 0.033 | 0.06 | 0.029 | 0.05 | 0.05 | 0.097 | 0.06 |  | 0.034 |  | 0.03 | 0.073 | 0.091 | 0.043 | C/C=C1\NC(=O)c2cccc(n2)CNC(=O)C[C@@H](/C=C/CCSC(=O)CCCCC)OC(=O)[C@H](C(C)C)NC1=O [Compound 3] | 
0.048 | 0.081 | 0.02 | 0.052 | 0.04 | 0.04 | 0.081 | 0.08 | 0.03 | 0.038 | 0.05 | 0.08 | 0.049 | 0.029 | 0.029 | C/C=C1\NC(=O)c2cc(F)cc(n2)CNC(=O)C[C@@H](/C=C/CCSC(C)=O)OC(=O)[C@H](Cc2ccc(O)cc2)NC1=O [Example 82] | 

The next lines start with the compound.

SMILES | GI50 [1] [µM] | GI50 [2] [µM] | GI50 [3] [µM] | GI50 [4] [µM] | GI50 [5] [µM] | GI50 [6] [µM] | GI50 [7] [µM] | GI50 [8] [µM] | GI50 [9] [µM] | GI50 [10] [µM] | GI50 [11] [µM] | GI50 [12] [µM] | GI50 [13] [µM] | GI50 [14] [µM] | GI50 [15] [µM] | further results
C/C=C1\NC(=O)c2ccc(F)c(n2)CNC(=O)C[C@@H](/C=C/CCSC(C)=O)OC(=O)[C@H](CCCCNC(=O)OCC2c3ccccc3-c3ccccc32)NC1=O [Example 77] | 0.601 | 0.083 | 0.05 | 0.035 | 0.05 | 0.6 | 0.083 | 0.08 | 0.04 | 0.037 | 0.03 | 0.08 | 0.052 | 0.025 | 0.025 | 
C/C=C1\NC(=O)c2ccc(SC)c(n2)CNC(=O)C[C@@H](/C=C/CCSC(=O)CCCCCCC)OC(=O)[C@H](CC)NC1=O [Compound 173] | 0.023 | 0.027 |  | 0.036 |  |  | 0.022 |  |  | 0.012 |  |  | 0.013 | 0.048 | 0.071 | GI50 ([3]; BGC-823 cells): 0.04 µM; GI50 ([5]; Hela cells): 0.06 µM; GI50 ([6]; A549 cells): 0.06 µM; GI50 ([8]; HT1080 cells): 0.07 µM; GI50 ([9]; DU145 cells): 0.06 µM; GI50 ([11]; U937 cells): 0.01 µM; GI50 ([12]; PANC-1 cells): 0.04 µM
C/C=C1\NC(=O)c2nc(ccc2F)CNC(=O)C[C@@H](/C=C/CCSC(C)=O)OC(=O)[C@H](Cc2cccc3ccccc23)NC1=O [Compound 78] | 0.062 | 0.072 | 0.06 | 0.063 | 0.06 | 0.06 | 0.072 | 0.07 | 0.04 | 0.019 | 0.06 | 0.07 | 0.061 | 0.029 | 0.029 | 
C/C=C1\NC(=O)c2cc(F)cc(n2)CNC(=O)C[C@@H](/C=C/CCSC(C)=O)OC(=O)[C@H](Cc2cccc3ccccc23)NC1=O [Example 79] | 0.051 | 0.091 | 0.02 | 0.061 | 0.07 | 0.05 | 0.091 | 0.09 | 0.02 | 0.028 | 0.06 | 0.09 | 0.076 | 0.031 | 0.031 | 
C/C=C1\NC(=O)c2nc(ccc2F)CNC(=O)C[C@@H](/C=C/CCSC(C)=O)OC(=O)[C@H](Cc2ccc(O)cc2)NC1=O [Compound 81] | 0.059 | 0.051 | 0.03 | 0.043 | 0.03 | 0.05 | 0.051 | 0.05 | 0.02 | 0.034 | 0.04 | 0.05 | 0.038 | 0.034 | 0.034 | 
